For one molecule, Edema inhibition and Edema thickness results are on record in US8853264B2, “Use of lignan compounds for treating or preventing inflammatory disease” (Newtree Industry Co., Ltd., priority 2005, dated 2014).

The test concerns edemas of the rat ears induced by TPA. The experiment in a line: TPA-induced rat ear edema inhibition test. The settings on record: for Edema thickness: topical in acetone 30 min after TPA, measured after 8 hours. Format: in vivo, Wistar rats. As for the experimental part:
The anti-inflammatory activity of the lignan compound isolated and purified in <Example 1> was tested in animal models. The anti-inflammatory activity was measured by edema inhibition test on rats. As the test animals, 5-week-old Wistar rats (DaeHan Biolink Co., Ltd, Korea) were used. The animals were provided with standard pellet forming rat feed (Cheiljedang Corporation, Korea) and given freely to feed and water. Also, the animals were housed in conditions of 12-hr light/12-hr dark cycle, temperature of 25±2° C. and humidity of 60±10%. Inflammation inducing agent TPA (12-O-tetradecanoylphorbol-13-acetate; Sigma) was dissolved in acetone to a concentration of 200 μg/mL. The edemas of the rat ears were induced by applying the TPA solution locally to each of the outer and inner faces of the ear in an amount of 10 μl/ear (4 μg/ear). The macelignan purified in <Example 1> and non-steroidal anti-inflammatory drug indomethacin as a control substance were dissolved in acetone and used in amounts of 20, 200 and 2000 μg/ear. Each of the macelignan and the indomethacin was applied locally to the rat ears at 30 minutes after treatment with TPA. A control group was locally applied with acetone. The thickness of the rat ears was measured with a caliper 8 hours after treatment with each of the substances. An increase in the ear thickness in the group treated with the sample was compared to that of the group untreated with the sample, and inflammation inhibitory effect was measured by calculating percent edema inhibition.

`COc1ccc2c(c1)c(CC(=O)O)c(C)n2C(=O)c1ccc(Cl)cc1` [indomethacin, reference compound]: the Edema inhibition is, setting by setting: (dose 20 μg/ear) 25.0%; (dose 200 μg/ear) 56.5%; (dose 2000 μg/ear) 74.2%. For the same molecule, the Edema thickness is listed as 185 ± 5 μm (dose 20 μg/ear), 108 ± 8 μm (dose 200 μg/ear) and 64 ± 7 μm (dose 2000 μg/ear).
